Reference: patent publication US20110160146A1, “Conjungation of Small Molecules to Octaarginine Transporters for Overcoming Multi-Drug Resistance” (National Institute of Health (NIH), priority 2008, published 2011)
Non-standard residues stand in square brackets, D forms with d. Residues, ends and D or L forms follow the SMILES beside them. *: point of attachment. Paclitaxel(2'-OCO(CH2)3S) = CC(=O)O[C@H]1C(=O)[C@@]2(C)[C@H]([C@H](OC(=O)c3ccccc3)[C@]3(O)C[C@H](OC(=O)[C@H](OC(=O)CCCS*)[C@@H](NC(=O)c4ccccc4)c4ccccc4)C(C)=C1C3(C)C)[C@]1(OC(C)=O)CO[C@@H]1C[C@@H]2O; X2 = CC(=O)O[C@H]1C(=O)[C@@]2(C)[C@H]([C@H](OC(=O)c3ccccc3)[C@]3(O)C[C@H](OC(=O)[C@H](OC(=O)OCCS*)[C@@H](NC(=O)c4ccccc4)c4ccccc4)C(C)=C1C3(C)C)[C@]1(OC(C)=O)CO[C@@H]1C[C@@H]2O; X1 = CC(=O)O[C@H]1C(=O)[C@]2(C)[C@@H](OC(=O)CCCS*)C[C@H]3OC[C@@]3(OC(C)=O)[C@H]2[C@H](OC(=O)c2ccccc2)[C@]2(O)C[C@H](OC(=O)[C@H](O)[C@@H](NC(=O)c3ccccc3)c3ccccc3)C(C)=C1C2(C)C; X3 = O=C(OCCCS*)Oc1ccc(-c2cn3c(=O)c(Cc4ccccc4)nc-3c(Cc3ccccc3)[nH]2)cc1

Legend:
[1] = Hydrolytic stability (HBS, pH 7.4, 37° C.); format: physicochemical
Protocol: A conjugate in which a drug to be delivered and a transporter are linked by a specifically cleavable or specifically releasable linker will have a half-life. The term “half-life” in this context refers to the amount of time required for one half of the amount of conjugate to become dissociated to release the free drug. The “accelerated” (37° C.) hydrolytic half-lives of the conjugates ranged from 19 to 97 hours, extending well beyond the incubation times (≦20 minutes) used for cell assays. Stabilities of the conjugates as solids at room temperature extend for months. […] The half-life of a conjugate can be “tuned” or modified, according to the invention, as described below.
The “accelerated” (37° C.) hydrolytic half-lives of the tetra- and octaarginine conjugates ranged from 19 to 97 hours, extending well beyond the incubation times (s 20 minutes) used for cell assays. Stability as a solid at room temperature extends for months. […] The activities of various conjugate-linker combinations were evaluated using a panel of human cancer cells, leading to the identification of ester-linked conjugates 2a and 3a as preferred candidates (Table 2).

[2] = Protocol: FIG. 2. Effect of octaarginine (r8) conjugation on biodistribution of drug. […] (a) Representative image of treated mice at 40 min post injection. (b) Total signal per mouse at times post injection (average of two experiments).
Biolumninescence signal was determined at regular time points immediately after injection using an IVIS 200 system (Caliper Life Sciences, Alameda, Calif.).

OVCA 429 = experiment: cells; conditions: read-out: IC50 concentration; OVCA 429; 20 min incubation, washed, 72 hr drug-free media
Protocol: (§1) After 72 hours, the cytotoxicity of the relevant compound was determined by an MTT based assay.
(§2) Cell Lines; SKOV-3 cells were obtained from ATCC; UCI-101 and UCI-107 cell lines were obtained from Drs. P. DiSaia and A. Manetta, University of California; MCF-7 and MCF-7-Pgp were obtained from Dr. D. Piwnica-Worms, Washington University; OVCA429, OVCA433 and the taxane resistant derivatives of these cells (OVCA429T, OVCA429TxT, OVCA433T and OVCA433TxT) were obtained from Dr. B. Sikic, Stanford University. All cells were grown in DMEM with 10% FBS.
(§3) Cell Cytotoxicity Assay. The cytotoxicity of relevant compounds was determined by IC50 assay. Cells were seeded overnight into 96-well plates, and then incubated with a serial dilution of the indicated compound for 20 min, before washing twice with fresh media, and incubation at 37° C. for 72 hr in drug-free media. The IC50 values were determined as the concentration of compound required to inhibit the viability of the cell layer by 50% relative to untreated, and cell-free control wells (100 and 0% viability respectively) determined from semi-logarithmic dose response curves. […] Bioluminescence was determined using an IVIS 50 system (Caliper Life Sciences, Alameda, Calif.). Each compound and dilution was tested in triplicate per experiment, with each experiment reproduced three times.

MCF-7 = experiment: cells; conditions: read-out: IC50 concentration; MCF-7; 20 min incubation, washed, 72 hr drug-free media
Protocol: as §1, §2, §3

SKOV-3 = experiment: cells; conditions: read-out: IC50 concentration; SKOV-3; 20 min incubation, washed, 72 hr drug-free media
Protocol: as §1, §2, §3

UCI-107 luc = experiment: cells; conditions: read-out: IC50 concentration; UCI-107 luc; 20 min incubation, washed, 72 hr drug-free media; MTT assay or luciferase activity
Protocol: as §1, §2, §3

OVCA 433 = experiment: cells; conditions: read-out: IC50 concentration; OVCA 433; 20 min incubation, washed, 72 hr drug-free media
Protocol: as §1, §2, §3

UCI-101 luc = experiment: cells; conditions: read-out: IC50 concentration; UCI-101 luc; 20 min incubation, washed, 72 hr drug-free media; MTT assay or luciferase activity
Protocol: as §1, §2, §3

OVCA 433TxT = experiment: cells; conditions: read-out: IC50 concentration; OVCA 433TxT (taxotere selected); 20 min incubation, washed, 72 hr drug-free media
Protocol: as §1
(§4) Within the panel of human cancer cells, there were three sets of related sensitive and resistant cell lines, the latter based wholly or in part on Pgp-mediated efflux. These resistant lines were either created through stable transfection of MCF-7 cells with Pgp (MCF-7-Pgp), or by selection through exposure of OVCA429 and OVCA433 cells to taxol (OVCA429T and OVCA433T)^19 or taxotere (OVCA429TxT and OVCA433TxT), creating a complex MDR phenotype including Pgp upregulation.
as §2, §3

OVCA 429TxT = experiment: cells; conditions: read-out: IC50 concentration; OVCA 429TxT (taxotere selected); 20 min incubation, washed, 72 hr drug-free media
Protocol: as §1, §4, §2, §3

OVCA 433T = experiment: cells; conditions: read-out: IC50 concentration; OVCA 433T (taxol resistant); 20 min incubation, washed, 72 hr drug-free media
Protocol: as §1, §4, §2, §3

OVCA 429T = experiment: cells; conditions: read-out: IC50 concentration; OVCA 429T (taxol resistant); 20 min incubation, washed, 72 hr drug-free media
Protocol: as §1, §4, §2, §3

MCF-7-pgp = experiment: Cell cytotoxicity assay (IC50), MCF-7-pgp; conditions: read-out: IC50 concentration; MCF-7-pgp (Pgp transfected); 20 min incubation, washed, 72 hr drug-free media
Protocol: as §1, §4, §2, §3

OVCA429 cells = experiment: Cell cycle assay, OVCA429; format: cell-based, human; parameters: dose or concentration left out as unconfirmed; conditions: analysis after 24 hr, 7-AAD flow cytometry
Protocol: FIG. 1. Mechanisms of action of octaarginine taxol conjugates. (a) Tubulin polymerization assay.
The percentage of cells in G2/M was recorded. Data from 3 separate experiments were combined.
Statistical significance was determined as p<0.05.

CC(=O)N[C@H](CSSCCOC(=O)O[C@@H](C(=O)O[C@H]1C[C@@]2(O)[C@@H](OC(=O)c3ccccc3)[C@@H]3[C@]4(OC(C)=O)CO[C@@H]4C[C@H](O)[C@@]3(C)C(=O)[C@H](OC(C)=O)C(=C1C)C2(C)C)[C@@H](NC(=O)c1ccccc1)c1ccccc1)C(=O)N[C@H](CCCNC(=N)N)C(=O)N[C@H](CCCNC(=N)N)C(=O)N[C@H](CCCNC(=N)N)C(=O)N[C@H](CCCNC(=N)N)C(=O)N[C@H](CCCNC(=N)N)C(=O)N[C@H](CCCNC(=N)N)C(=O)N[C@H](CCCNC(=N)N)C(=O)N[C@H](CCCNC(=N)N)C(N)=O [4a, Taxol C2′ octaarginine conjugate] (Ac-[dC](X2)[dR][dR][dR][dR][dR][dR][dR][dR]-NH2)
half-life [1]: 32 h

CC(=O)N[C@H](CSSCCCCOC(=O)Oc1ccc2nc(C3=N[C@@H](C(=O)O)CS3)sc2c1)C(=O)N[C@H](CCCNC(=N)N)C(=O)N[C@H](CCCNC(=N)N)C(=O)N[C@H](CCCNC(=N)N)C(=O)N[C@H](CCCNC(=N)N)C(=O)N[C@H](CCCNC(=N)N)C(=O)N[C@H](CCCNC(=N)N)C(=O)N[C@H](CCCNC(=N)N)C(=O)N[C@H](CCCNC(=N)N)C(N)=O [compound 7, Luciferin octaarginine conjugate]
half-life [1]: 30 h
calculated area under the curve (total light production) ([2]; intraperitoneal injection, luciferase transgenic mice): similar
biodistribution after intraperitoneal injection ([2]; transgenic mice ubiquitously expressing Firefly luciferase, equimolar to 5 mg/kg): did not distribute throughout the body, remaining instead near the site of administration

CC(=O)N[C@H](CSSCCOC(=O)O[C@@H](C(=O)O[C@H]1C[C@@]2(O)[C@@H](OC(=O)c3ccccc3)[C@@H]3[C@]4(OC(C)=O)CO[C@@H]4C[C@H](O)[C@@]3(C)C(=O)[C@H](OC(C)=O)C(=C1C)C2(C)C)[C@@H](NC(=O)c1ccccc1)c1ccccc1)C(=O)N[C@H](CCCNC(=N)N)C(=O)N[C@H](CCCNC(=N)N)C(=O)N[C@H](CCCNC(=N)N)C(=O)N[C@H](CCCNC(=N)N)C(N)=O [4b, Taxol C2′ tetraarginine conjugate]
half-life [1]: 26 h

CC(=O)N[C@H](CSSCCCC(=O)O[C@H]1C[C@H]2OC[C@@]2(OC(C)=O)[C@H]2[C@H](OC(=O)c3ccccc3)[C@]3(O)C[C@H](OC(=O)[C@H](O)[C@@H](NC(=O)c4ccccc4)c4ccccc4)C(C)=C([C@@H](OC(C)=O)C(=O)[C@]12C)C3(C)C)C(=O)N[C@H](CCCNC(=N)N)C(=O)N[C@H](CCCNC(=N)N)C(=O)N[C@H](CCCNC(=N)N)C(=O)N[C@H](CCCNC(=N)N)C(=O)N[C@H](CCCNC(=N)N)C(=O)N[C@H](CCCNC(=N)N)C(=O)N[C@H](CCCNC(=N)N)C(=O)N[C@H](CCCNC(=N)N)C(N)=O [3a, Taxol C7 ester octaarginine conjugate] (Ac-[dC](X1)[dR][dR][dR][dR][dR][dR][dR][dR]-NH2)
IC50 (OVCA 429): 125 nM
IC50 (MCF-7): 146 nM
IC50 (SKOV-3): 24 nM
IC50 (UCI-107 luc): 233 nM
IC50 (OVCA 433): 62 nM
IC50 (UCI-101 luc): 170 nM
IC50 (OVCA 433TxT): 1280 nM
IC50 (OVCA 429TxT): 93 nM
IC50 (OVCA 433T): 95 nM
IC50 (OVCA 429T): 225 nM
half-life [1]: 97 h
IC50 (MCF-7-pgp): 83 nM

CC(=O)N[C@H](CSSCCCC(=O)O[C@H]1C[C@H]2OC[C@@]2(OC(C)=O)[C@H]2[C@H](OC(=O)c3ccccc3)[C@]3(O)C[C@H](OC(=O)[C@H](O)[C@@H](NC(=O)c4ccccc4)c4ccccc4)C(C)=C([C@@H](OC(C)=O)C(=O)[C@]12C)C3(C)C)C(=O)N[C@H](CCCNC(=N)N)C(=O)N[C@H](CCCNC(=N)N)C(=O)N[C@H](CCCNC(=N)N)C(=O)N[C@H](CCCNC(=N)N)C(N)=O [3b, Taxol C7 ester tetraarginine conjugate]
half-life [1]: 68 h

CC(=O)N[C@H](CSSCCCOC(=O)Oc1ccc(-c2cn3c(=O)c(Cc4ccccc4)nc-3c(Cc3ccccc3)[nH]2)cc1)C(=O)N[C@H](CCCNC(=N)N)C(=O)N[C@H](CCCNC(=N)N)C(=O)N[C@H](CCCNC(=N)N)C(=O)N[C@H](CCCNC(=N)N)C(=O)N[C@H](CCCNC(=N)N)C(=O)N[C@H](CCCNC(=N)N)C(=O)N[C@H](CCCNC(=N)N)C(=O)N[C@H](CCCNC(=N)N)C(N)=O [compound 6, Coelenterazine octaarginine conjugate] (Ac-[dC](X3)[dR][dR][dR][dR][dR][dR][dR][dR]-NH2)
half-life [1]: 0.117 h

CC(=O)N[C@H](CSSCCCC(=O)O[C@@H](C(=O)O[C@H]1C[C@@]2(O)[C@@H](OC(=O)c3ccccc3)[C@@H]3[C@]4(OC(C)=O)CO[C@@H]4C[C@H](O)[C@@]3(C)C(=O)[C@H](OC(C)=O)C(=C1C)C2(C)C)[C@@H](NC(=O)c1ccccc1)c1ccccc1)C(=O)N[C@H](CCCNC(=N)N)C(=O)N[C@H](CCCNC(=N)N)C(=O)N[C@H](CCCNC(=N)N)C(=O)N[C@H](CCCNC(=N)N)C(N)=O [2b, Taxol C2′ ester tetraarginine conjugate]
percentage of cells in the G2/M phase relative to taxol (OVCA429 cells): significantly greater percentage
half-life [1]: 19 h

CC(=O)N[C@H](CSSCCCC(=O)O[C@@H](C(=O)O[C@H]1C[C@@]2(O)[C@@H](OC(=O)c3ccccc3)[C@@H]3[C@]4(OC(C)=O)CO[C@@H]4C[C@H](O)[C@@]3(C)C(=O)[C@H](OC(C)=O)C(=C1C)C2(C)C)[C@@H](NC(=O)c1ccccc1)c1ccccc1)C(=O)N[C@H](CCCNC(=N)N)C(=O)N[C@H](CCCNC(=N)N)C(=O)N[C@H](CCCNC(=N)N)C(=O)N[C@H](CCCNC(=N)N)C(=O)N[C@H](CCCNC(=N)N)C(=O)N[C@H](CCCNC(=N)N)C(=O)N[C@H](CCCNC(=N)N)C(=O)N[C@H](CCCNC(=N)N)C(N)=O [2a, Taxol C2′ ester octaarginine conjugate] (Ac-[dC](Paclitaxel(2'-OCO(CH2)3S))[dR][dR][dR][dR][dR][dR][dR][dR]-NH2)
IC50 (OVCA 429): 42 nM
IC50 (MCF-7): 40 nM
IC50 (SKOV-3): 11 nM
IC50 (UCI-107 luc): 92 nM
IC50 (OVCA 433): 21 nM
IC50 (UCI-101 luc): 58 nM
IC50 (OVCA 433TxT): 2980 nM
IC50 (OVCA 429TxT): 101 nM
IC50 (OVCA 433T): 131 nM
IC50 (OVCA 429T): 420 nM
half-life [1]: 23 h
IC50 (MCF-7-pgp): 151 nM
